Ends that are not written are not given here.
Assays:
[1] = test system: S68 antibody; experiment: Peptide blocking of S68 antibody binding to serum protein (specificity of S68 antibody); set-up: species or system rabbit; details: peptide 0, 0.1, 1, and 10 µg/mL; sera of sepsis patients and normal donors
From the text: For confirming the specificity of S68 antibody prepared in Example 1, the inventors studied whether blocking occurs by a peptide by the same assay as that of Example 3-(3). That is, S68 peptide (amino acid sequence at positions 53 to 68), synthetic polypeptide prepared by the same way as that of Example 1 (amino acid sequence at positions 53 to 58, amino acid sequence at positions 57 to 62, and amino acid sequence at positions 59 to 64), or negative control peptide (Cys Glu Gly Asn Gly Asn Asn Phe Glu Ser Arg Glu Ala Cys) was diluted to 0, 0.1, 1, and 10 µg/mL and 25 µL of each diluted solution was added to 25 µL of each of 50-fold diluted solutions of the sera obtained from patients suffering from sepsis and the sera of normal donors to initiate a competitive reaction by mixing with S68 antibody. After that, the levels of the soluble protein bound to S68 antibody without inhibition by any peptide were determined.
The above result confirmed that a protein being detected in blood by S68 antibody is specifically recognized by S68 antibody. In addition, the result also confirmed that the sequence recognized by the antibody requires a length of at least 7 amino acids because the inhibition can not be attained by three kinds of synthetic peptides (the number of amino acids: 6) corresponding to the partial peptides of S68 peptide.

[2] = Measurement of chemically synthesized peptide with kit of Example 7-(3); format: binding
From the text: A peptide synthesizer ABI433A (Applied) was used and amino acid columns were then aligned according to the amino acid sequences to carry out automatic synthesis. The synthesized peptide was removed from a resin by the conventional method and then recovered by ether precipitation. The resultant peptide was re-dissolved in distilled water and then freeze-dried. After the dissolution, the crude peptide thus obtained was eluted through a linear gradient of 5-70% acetonitrile by the use of C18 reversed phase HPLC (CAPCELL-PAK, Shiseido Co., Ltd.). Consequently, a fraction containing a peptide of interest was collected. The collected fraction was freeze-dried and provided as a purified peptide. The purified peptide was dissolved in the diluent described in Example 7-(12) and then the solution was subjected to the measurement with the kit described in Example 7-(3).

| Molecule | inhibition of the binding between S68 antibody and the soluble protein in serum [1] | reaction with the kit described in Example 7-(3) [2] |
| --- | --- | --- |
| CEGNGNNFESREAC (cysteine pairing not given here) [negative control peptide, reference compound] | not inhibited | – |
| S68 peptide: peptide having the sequence of SEQ ID NO: 2, positions 53 to 68 of SEQ ID NO: 3 (RVDADADPRQYADTVK) | inhibited | – |
| sCD14(1-70): chemically synthesized soluble polypeptide having amino acids at positions 1 to 70 on the N-terminal of human CD14 (peptide) peptide: TTPEPCELDDEDFRCVCNFSEPQPDWSEAFQCVSAVEVEIHAGGLNLEPFLKRVDADADPRQYADTVKAL | – | strongly reacted |

Reference: patent EP1746104B1, “NOVEL SOLUBLE CD14 ANTIGEN” (MOCHIDA PHARMACEUTICAL CO., LTD., priority 2004, dated 2005)
